# Read-outs that look alike come from different tables or passages of the source.
# Legend:
# T Cells = test: Immunosuppressive activity assay: T cells inhibitory activity; assay type: cell-based; conditions: T-cell; Table 10
# [1] = system: SRBC-induced specific antibody-producing cells in spleen lymphocytes; test: Quantitative hemolysis of sheep red blood cells (QHS) assay; assay type: in vivo, BALB/c mice; conditions: 1.5 mg/kg, intraperitoneal injection; for Quantitative hemolysis OD Value: model control 0.3887, normal control 0.3036
# From the text: It is a classic experimental method to determine the generation of antigen-specific antibody with SRBC hemolytic reaction in SRBC-induced mouse humoral immunity model. The quantitative hemolysis of sheep red blood cells (QHS) assay is an experimental method for evaluating the amount of the antibody secreted, which is based on the principle that the sheep red blood cells are hemolyzed by the anti-SRBC specific antibody secreted by B lymphocytes (plasma cells) to release haemoglobin. After mice are sensitized by sheep red blood cells (SRBC), there will appear cells which can secrete specific antibody in mouse spleen lymphocytes. The Antibody secreted by such cells could hemolyze SRBC with the synergistic action of the complement. Therefore, the amount of the cells secreting the specific antibody can be evaluated by determining the hemolytic degree by spectrophotometry. […] BALB/c mice were randomly divided into 5 groups with 6 mice in each group. […] When immunized, the mice in each group were administered by intraperitoneal injection once daily until 5 days after the immunization. The mice in model control group were administered daily with the solvent. 2. […] Each mice was introperitoneally injected with 0.2 ml of the diluted SRBC for sensitizing. 3. QHS assay was carried out 5 days after the sensitization: The mouse spleen was collected to produce the spleen lymphocytes. […] The mixture was kept at 37° C. for 1 hour, and then centrifugated at 3000 rpm for 10 min. […] The quantitative hemolysis of sheep red blood cells (QHS) assay uses the amount of haemoglobin (OD value) released from the hemolysis of red blood cells by the antibody secreted by B cells to indicate the level of humoral immunity in body. Inhibition of specific antibody-secreting cells %=(OD of model control group-OD of administration group)/(OD of model control group-OD of normal control group)
# [2] = system: normal mouse spleen T lymphocytes induced by ConA; test: 3H-TdR incorporation, ConA-induced T lymphocyte proliferation; assay type: cell-based, BALB/c mice; conditions: read-out: IC50, proliferation of T lymphocytes induced by ConA
# Experimental: ^3H-thymidine incorporation was adopted to measure the effect of the in vitro administered compound on the proliferation function of the spleen lymphocytes of normal mice induced by a mixed culture of mitogen/allogeneic mouse spleen lymphocytes, and evaluate the in vitro immunosuppressive activity of the compound.
# Measurement of the effects of compounds on the proliferation function of mouse spleen lymphocytes induced by mitogen by ^3H-TdR incorporation: 100 μl cell suspension of mouse spleen lymphocytes was inoculated on a 96-well plate (4×10^5 per well), followed by addition of 50 μl of ConA (final concentration: 5 μg/ml), 50 μl of LPS (final concentration: […]) or 50 μl of compound at different concentrations. The total volume of each well was 200 μl. The test was carried out in triplicate wells for each concentration, and included control wells without ConA/LPS or the compound. After the 96-well plate was placed in an incubator at 37° C. with 5% CO2 for 48 hours, 25 μl of ^3H-thymidine (10 μCi/ml) was added in each well 8 hours before the end of incubation. […] The amount of ^3H-TdR incorporated in cell DNA was determined by a Beta cell counter (MicroBeta Trilux, PerkinElmer), and the cell proliferation was represented as a cpm value.
# [3] = Immunosuppressive activity assay: cytotoxicity; assay type: cell-based
# [4] = system: human osteosarcoma U2SO xenograft; test: U2SO xenograft on nude mice; conditions: 1-5/3 w; for TV (mm^3) d0: baseline
# [5] = MTT cytotoxicity on mouse spleen lymphocytes; assay type: cell-based, BALB/c mice; conditions: BALB/c, MTT assay
# Experimental: 3-(4,5-dimethylthylthiazol-2-yl)-2,5-diphenyl tetrazolium bromide (MTT) assay was adopted to measure the effect of the in vitro administered compound on the activity of the spleen lymphocytes of normal mice, and evaluate the cytotoxicity of the compound.
# They were dissolved in DMSO before testing to prepare a stock solution, which was diluted to a desired concentration with the medium when use.
# 100 μl cell suspension of mouse spleen lymphocytes was inoculated on a 96-well plate (4×10^5 per well), and the compound at different concentrations was added therein, including additional solvent control or medium background control, wherein, the total volume of each well was 200 μl. After the 96-well plate was placed in an incubator at 37° C. with 5% CO2 for 48 hours, 20 μl (5 mg/ml) of MTT solution was added 6 to 7 hours before the end of incubation. Then after the incubation was completed, 100 μl of supernatant was removed for each well, and 100 μl of […] was added therein. After the 96-well plate was placed in the incubator for 6 to 7 hours, OD values were determined on an ELISA Reader at the wavelength of 570 nm.
# [6] = system: human rhabdomyosarcoma RH-30 xenograft; test: RH-30 xenograft on nude mice; conditions: for TV (mm^3) d0: baseline;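 for all read-outs here: male BALB/cA nude mice with subcutaneous RH-30 tumors, oral dosing versus solvent-fed controls, caliper tumor volume, RTV relative to grouping day, T/C as treated RTV over control RTV ×100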
# From the text: Animals: BALB/cA nude mice, male, 40-45 days old, body weight: 21±2 g, provided by Shanghai Institute of Materia Medica, Chinese Academy of Sciences. License No.: SCXK (Shanghai) 2004-0002. Animal number in each group: 6 in negative control group, and 6 in administration group.
# The amount of inoculated cells was 5×10^6. After the xenograft was formed by inoculation, it was used after passed for 3 generations in nude mice.
# [7] = Table 10, read-out: Cytotoxicity CC50
# [8] = Table 2, 5 mg/kg p.o, 1-5 × 3 w
# [9] = Table 2, 10 mg/kg p.o, 1-5 × 3 w
smiles,measurement,setting,value
CO[C@H]1C[C@@H]2CC[C@@H](C)[C@@](O)(O2)C(=O)C(=O)N2CCCC[C@H]2C(=O)O[C@H]([C@H](C)C[C@@H]2CC[C@@H](OC(=O)OCC(O)CO)[C@H](OC)C2)CC(=O)[C@H](C)/C=C(\C)[C@@H](O)[C@@H](OC)C(=O)[C@H](C)C[C@H](C)/C=C/C=C/C=C/1C (stereo partly drawn) [Y31],IC50,T Cells,0.05 µM
same,Inhibition of Specific Antibody-secreting cells %,[1],93.03%
same,Quantitative hemolysis OD Value,[1],0.3095
same,IC50,"[2]; ConA 5 μg/ml, 48 hours, 3H-TdR",0.331 µM
same,Safety Index CC50/IC50,[3]; Table 10,1860.0
same,CC50,[3]; [7],93 µM
same,Body Weight (g) end,"[4]; Table 5, oral 2.5 mg/kg",20.2 g
same,Body Weight (g) start,"[4]; Table 5, oral 2.5 mg/kg",18.5 g
same,RTV,"[4]; Table 5, oral 2.5 mg/kg",12 ± 6.7
same,T/C (%),"[4]; Table 5, oral 2.5 mg/kg",49.0%
same,TV (mm^3) d21,"[4]; Table 5, oral 2.5 mg/kg",975 ± 235 mm^3
same,TV (mm^3) d0,"[4]; Table 5, oral 2.5 mg/kg",90 ± 27 mm^3
same,Body Weight (g) end,"[4]; Table 5, oral 5 mg/kg",19.5 g
same,Body Weight (g) start,"[4]; Table 5, oral 5 mg/kg",17.7 g
same,RTV,"[4]; Table 5, oral 5 mg/kg",11 ± 7.2
same,T/C (%),"[4]; Table 5, oral 5 mg/kg",44.0%
same,TV (mm^3) d21,"[4]; Table 5, oral 5 mg/kg",967 ± 234 mm^3
same,TV (mm^3) d0,"[4]; Table 5, oral 5 mg/kg",89 ± 19 mm^3
same,CC50 at 48 h,[5],36.9 µM
same,Body Weight (g) end,"[6]; Table 4, 2.5 mg/kg po, 1-5/2 w",21.2 g
same,Body Weight (g) start,"[6]; Table 4, 2.5 mg/kg po, 1-5/2 w",19.2 g
same,RTV,"[6]; Table 4, 2.5 mg/kg po, 1-5/2 w",1.6 ± 0.6
same,T/C (%),"[6]; Table 4, 2.5 mg/kg po, 1-5/2 w",37.1%
same,TV (mm^3) d14,"[6]; Table 4, 2.5 mg/kg po, 1-5/2 w",259 ± 130 mm^3
same,TV (mm^3) d0,"[6]; Table 4, 2.5 mg/kg po, 1-5/2 w",159 ± 36 mm^3
same,Body Weight (g) end,"[6]; Table 4, 5 mg/kg po, 1-5/2 w",21.7 g
same,Body Weight (g) start,"[6]; Table 4, 5 mg/kg po, 1-5/2 w",20.8 g
same,RTV,"[6]; Table 4, 5 mg/kg po, 1-5/2 w",2.0 ± 0.5
same,T/C (%),"[6]; Table 4, 5 mg/kg po, 1-5/2 w",45.5%
same,TV (mm^3) d14,"[6]; Table 4, 5 mg/kg po, 1-5/2 w",316 ± 153 mm^3
same,TV (mm^3) d0,"[6]; Table 4, 5 mg/kg po, 1-5/2 w",160 ± 53 mm^3
CO[C@H]1C[C@@H]2CC[C@@H](C)[C@@](O)(O2)C(=O)C(=O)N2CCCC[C@H]2C(=O)O[C@H]([C@H](C)C[C@@H]2CC[C@@H](O)[C@H](OC)C2)CC(=O)[C@H](C)/C=C(\C)[C@@H](O)[C@@H](OC)C(=O)[C@H](C)C[C@H](C)/C=C/C=C/C=C/1C [Rapamycin],IC50,T Cells,4.2 µM
same,Inhibition of Specific Antibody-secreting cells %,[1],100%
same,Quantitative hemolysis OD Value,[1],0.3012
same,IC50,[2],0.196 µM
same,CC50,"[3]; Table 10, value beyond the >100 μM bound, read-out: Cytotoxicity CC50, value in brackets",3600 µM
same,CC50,[3]; [7],> 100 µM
same,Body Weight (g) end,"[4]; Table 5, oral 2.5 mg/kg",18.5 g
same,Body Weight (g) start,"[4]; Table 5, oral 2.5 mg/kg",19.7 g
same,RTV,"[4]; Table 5, oral 2.5 mg/kg",15 ± 5.1
same,T/C (%),"[4]; Table 5, oral 2.5 mg/kg",60.0%
same,TV (mm^3) d21,"[4]; Table 5, oral 2.5 mg/kg",1230 ± 344 mm^3
same,TV (mm^3) d0,"[4]; Table 5, oral 2.5 mg/kg",85 ± 24 mm^3
same,Body Weight (g) end,"[4]; Table 5, oral 5 mg/kg",17.5 g
same,Body Weight (g) start,"[4]; Table 5, oral 5 mg/kg",19.5 g
same,RTV,"[4]; Table 5, oral 5 mg/kg",15 ± 3.4
same,T/C (%),"[4]; Table 5, oral 5 mg/kg",59.0%
same,TV (mm^3) d0,"[4]; Table 5, oral 5 mg/kg",86 ± 20 mm^3
same,CC50 at 48 h,[5],45.5 µM
same,Body Weight (g) end,[6]; [8],27.0 g
same,Body Weight (g) start,[6]; [8],23.7 g
same,RTV,[6]; [8],5.5 ± 1.8
same,T/C (%),[6]; [8],61.8%
same,TV (mm^3) d21,[6]; [8],650 ± 326 mm^3
same,TV (mm^3) d0,[6]; [8],124 ± 65 mm^3
same,Body Weight (g) end,[6]; [9],25.7 g
same,Body Weight (g) start,[6]; [9],23.3 g
same,RTV,[6]; [9],3.1 ± 0.7
same,T/C (%),[6]; [9],35.7%
same,TV (mm^3) d0,[6]; [9],136 ± 57 mm^3
same,Body Weight (g) end,"[6]; Table 4, 2.5 mg/kg po, 1-5/2 w",21.8 g
same,Body Weight (g) start,"[6]; Table 4, 2.5 mg/kg po, 1-5/2 w",20.2 g
same,RTV,"[6]; Table 4, 2.5 mg/kg po, 1-5/2 w",2.8 ± 0.8
same,T/C (%),"[6]; Table 4, 2.5 mg/kg po, 1-5/2 w",63.7%
same,TV (mm^3) d14,"[6]; Table 4, 2.5 mg/kg po, 1-5/2 w",440 ± 157 mm^3
same,TV (mm^3) d0,"[6]; Table 4, 2.5 mg/kg po, 1-5/2 w",164 ± 67 mm^3
same,Body Weight (g) end,"[6]; Table 4, 5 mg/kg po, 1-5/2 w",20.3 g
same,Body Weight (g) start,"[6]; Table 4, 5 mg/kg po, 1-5/2 w",19.8 g
same,RTV,"[6]; Table 4, 5 mg/kg po, 1-5/2 w",2.4 ± 1.0
same,T/C (%),"[6]; Table 4, 5 mg/kg po, 1-5/2 w",54.4%
same,TV (mm^3) d14,"[6]; Table 4, 5 mg/kg po, 1-5/2 w",362 ± 100 mm^3
same,TV (mm^3) d0,"[6]; Table 4, 5 mg/kg po, 1-5/2 w",159 ± 32 mm^3

# From patent US8455510B2
